Results from patent US20100063085A1, “METHOD OF TREATING LEARNING IMPAIRMENT IN DOWN'S SYNDROME SUBJECTS” (University Court of The University of Dundee, priority 2008, published 2010).
Like-named read-outs stand apart in the source and are kept apart here.

Legend:
IKKb = molecular target: T1, IKKb (Homo sapiens, UniProt O14920); test: biochemical; conditions: read-out: IKKb activity as percentage of control without inhibitor
T1 sequence (O14920 1-756): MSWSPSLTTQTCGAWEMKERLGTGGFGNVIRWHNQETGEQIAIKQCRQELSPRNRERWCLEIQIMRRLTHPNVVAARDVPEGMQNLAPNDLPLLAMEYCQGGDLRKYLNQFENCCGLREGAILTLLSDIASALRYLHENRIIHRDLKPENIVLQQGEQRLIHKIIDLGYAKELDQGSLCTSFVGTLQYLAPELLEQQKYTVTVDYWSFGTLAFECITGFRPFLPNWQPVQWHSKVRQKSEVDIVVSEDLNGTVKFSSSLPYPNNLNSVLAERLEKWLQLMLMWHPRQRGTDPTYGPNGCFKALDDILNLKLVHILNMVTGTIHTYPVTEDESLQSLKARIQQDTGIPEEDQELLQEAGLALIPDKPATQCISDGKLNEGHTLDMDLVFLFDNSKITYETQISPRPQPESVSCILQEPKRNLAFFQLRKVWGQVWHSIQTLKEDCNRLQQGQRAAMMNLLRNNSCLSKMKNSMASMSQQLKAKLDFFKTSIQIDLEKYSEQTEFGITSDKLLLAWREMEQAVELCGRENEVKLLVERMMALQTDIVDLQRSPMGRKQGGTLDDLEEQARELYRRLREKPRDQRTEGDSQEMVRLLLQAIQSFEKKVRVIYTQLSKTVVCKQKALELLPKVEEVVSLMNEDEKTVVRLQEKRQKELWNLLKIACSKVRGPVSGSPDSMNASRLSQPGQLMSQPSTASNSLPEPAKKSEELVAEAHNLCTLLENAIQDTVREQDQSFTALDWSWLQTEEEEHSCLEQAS
Description: (§1) All assays (25.5 μl) were carried out at room temperature (21° C.) and were linear with respect to time and enzyme concentrations under the conditions used. Assays were performed for 30 minutes except assays for LCK and PKB which were performed for 15 minutes using Multidrop Micro reagent dispensers (Thermo Electron Corporation, Waltham, Mass. 02454, USA) in a 96-well format. The concentration of […] [γ-^33P] ATP (800 cpm/pmol) in the assays was one of three concentrations (5, 20 or 50 μM) in order to be at or below Km for ATP for the enzyme. Assays were initiated with MgATP and stopped by addition of 5 μl of 0.5M orthophosphoric acid. Assays were then harvested onto P81 filterplates using a unifilter harvester (PerkinElmer, Boston, Mass. 02118, USA), with a wash buffer of 50 mM orthophosphoric acid. Filterplates were then air dried overnight. 10 μl of Microscint O was added per well prior to counting for radioactivity.
(§2) The following kinases were assayed against the substrates indicated. Aurora B was assayed against the substrate peptide […] (300 μM), ERK8 and MST-2 were both assayed against MBP (0.33 mg/ml). IKKβ was assayed against the substrate peptide […] (300 μM), JNK3 was assayed against 3 μM ATF2[19-96]. MAPKAP-K3 and PKD1 were both assayed against […] (30 μM), MARK3 was assayed against CHKtide ([…]) substrate peptide (300 μM). MNK1 and MNK2 were both assayed against eIF4E protein (0.5 mg/ml). NEK7 was assayed against […] (300 μM), PIM2 was assayed against […] (300 μM), ΔPH PKBβ-S474D was assayed against Crosstide (30 μM), PLK1 was assayed against […] (300 μM). PRK2 was assayed against Long S6 peptide, […] (30 μM), RSK2 was assayed against […] (30 μM), SRC was assayed against cdc2 peptide, […], (300 μM) and SRPK1 was assayed against peptide […] (300 μM). All enzymes were diluted in 50 mM Tris/HCl pH 7.5, 0.1 mM EGTA, 1 mg/ml BSA, 0.1% β-mercaptoethanol buffer and assayed in an incubation containing 50 mM Tris/HCl pH7.5, 0.1 mM EGTA, 0.1% β-mercaptoethanol, CAMK-1 (5-20 mU) diluted in 50 mM Tris/HCl pH 7.5, 0.1 mM EGTA, 1 mg/ml BSA, 0.1% β-mercaptoethanol is assayed against substrate peptide […] in an incubation containing 50 mM Tris/HCl pH 7.5, 0.1 mM EGTA, 0.5 mM CaCl2, 0.3 μM calmodulin, 0.1% β-mereaptoethanol, 300 μM substrate peptide, 10 mM magnesium acetate and 0.05 mM [^33P-γ-ATP] (500-1000 cpm/pmole). EF2K (5-20 mU) diluted in 50 mM Hepes pH 6.6, 0.1% β-mercaptoethanol, 1 mg/ml BSA is assayed against a substrate peptide […] in an incubation containing 50 mM Hepes pH 6.6, 0.2 mM CaCl2, 0.3 μM Calmodulin, 0.05% b-mercaptoethanol, 300 μM substrate peptide, 10 mM magnesium acetate and 0.05 mM [^33P-γ-ATP] (500-1000 cpm/pmole).

MAPKAP-K3 = MAPKAP-K3 (Homo sapiens, UniProt Q16644); test: biochemical; conditions: read-out: MAPKAP-K3 activity as percentage of control without inhibitor
Description: as §1, §2

PKBb = PKBb (Homo sapiens, UniProt P31751, S474D); test: PKBb 33P kinase assay; format: biochemical; conditions: read-out: PKBb activity as percentage of control without inhibitor
Description: as §1, §2
ΔPH-PKBbeta-S474D (5-20 mU diluted in 50 mM Tris pH 7.5, 0.1 mM EGTA, 0.1% β-mercaptoethanol, 1 mg/ml BSA) is assayed against a modified Crosstide peptide ([…]) in a final volume of 25.5 μl containing 50 mM Tris pH 7.5, 0.05% β-mercaptoethanol, 30 μM substrate peptide, 10 mM magnesium acetate and 0.05 mM [^33P- γATP] (50-1000 cpm/pmole) and incubated for 30 min at room temperature.

PLK1 = PLK1 (Homo sapiens, UniProt P53350); test: PLK1 33P kinase assay; format: biochemical; conditions: read-out: PLK1 activity as percentage of control without inhibitor
Description: as §1, §2

Sequence of PLK1 (P53350 whole entry, species assumed): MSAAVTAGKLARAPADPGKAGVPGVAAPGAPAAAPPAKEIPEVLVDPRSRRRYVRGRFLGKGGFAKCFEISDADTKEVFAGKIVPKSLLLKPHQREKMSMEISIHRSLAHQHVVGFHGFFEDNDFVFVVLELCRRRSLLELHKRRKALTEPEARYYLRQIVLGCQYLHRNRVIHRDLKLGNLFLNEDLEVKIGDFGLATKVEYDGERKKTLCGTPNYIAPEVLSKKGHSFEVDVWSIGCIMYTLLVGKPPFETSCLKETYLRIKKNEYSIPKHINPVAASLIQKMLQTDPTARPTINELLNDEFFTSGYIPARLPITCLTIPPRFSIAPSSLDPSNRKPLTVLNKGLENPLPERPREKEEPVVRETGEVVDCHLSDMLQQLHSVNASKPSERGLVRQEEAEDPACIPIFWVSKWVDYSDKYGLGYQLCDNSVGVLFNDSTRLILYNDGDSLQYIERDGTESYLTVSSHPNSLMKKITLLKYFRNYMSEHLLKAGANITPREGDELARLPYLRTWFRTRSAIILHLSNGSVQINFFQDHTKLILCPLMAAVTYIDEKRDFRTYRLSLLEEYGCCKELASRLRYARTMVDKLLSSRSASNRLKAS
Sequence of PKBb (P31751 120-481 S474D limits assumed): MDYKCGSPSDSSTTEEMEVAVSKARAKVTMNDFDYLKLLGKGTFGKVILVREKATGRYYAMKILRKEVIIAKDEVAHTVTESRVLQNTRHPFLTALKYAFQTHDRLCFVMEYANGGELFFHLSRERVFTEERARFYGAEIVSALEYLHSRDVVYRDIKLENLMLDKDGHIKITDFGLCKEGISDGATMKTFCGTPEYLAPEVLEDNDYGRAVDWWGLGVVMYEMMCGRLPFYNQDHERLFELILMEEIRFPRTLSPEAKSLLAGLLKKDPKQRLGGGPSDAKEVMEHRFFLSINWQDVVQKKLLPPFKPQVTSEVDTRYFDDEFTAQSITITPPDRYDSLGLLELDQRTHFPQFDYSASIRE
Sequence of MAPKAP-K3 (Q16644 whole entry, species assumed): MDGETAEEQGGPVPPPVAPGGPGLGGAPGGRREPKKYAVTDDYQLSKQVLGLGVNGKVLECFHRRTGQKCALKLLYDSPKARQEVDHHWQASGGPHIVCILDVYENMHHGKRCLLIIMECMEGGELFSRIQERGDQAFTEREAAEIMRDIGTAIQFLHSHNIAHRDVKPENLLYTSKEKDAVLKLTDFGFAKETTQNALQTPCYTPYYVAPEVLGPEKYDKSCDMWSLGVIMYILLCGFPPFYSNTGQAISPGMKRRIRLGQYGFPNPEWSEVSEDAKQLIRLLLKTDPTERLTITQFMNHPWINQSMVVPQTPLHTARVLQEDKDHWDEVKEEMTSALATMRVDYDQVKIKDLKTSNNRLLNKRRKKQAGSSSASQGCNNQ

SMILES | remaining activity at 1 µM (IKKb; inhibitor 1 μM) [%] | remaining activity at 10 µM (IKKb; inhibitor 10 μM) [%] | remaining activity at 1 µM (MAPKAP-K3; inhibitor 1 μM) [%] | remaining activity at 10 µM (MAPKAP-K3; inhibitor 10 μM) [%] | remaining activity at 1 µM (PKBb; inhibitor 1 μM) [%] | remaining activity at 10 µM (PKBb; inhibitor 10 μM) [%] | remaining activity at 1 µM (PLK1; inhibitor 1 μM) [%] | remaining activity at 10 µM (PLK1; inhibitor 10 μM) [%] | remaining activity at 1 µM (IKKb) [%] | remaining activity at 10 µM (IKKb) [%] | remaining activity at 1 µM (MAPKAP-K3) [%] | remaining activity at 10 µM (MAPKAP-K3) [%] | remaining activity at 1 µM (PKBb) [%] | remaining activity at 10 µM (PKBb) [%] | remaining activity at 1 µM (PLK1) [%] | remaining activity at 10 µM (PLK1) [%]
COc1ccc2c3c([nH]c2c1)C(C)=NCC3 [Harmaline] | 78 | 82 | 79 | 82 | 97 | 96 | 92 | 100 |  |  |  |  |  |  |  | 
CC1=NCCc2c1[nH]c1cc(O)ccc21 [Harmalol] | 93 | 69 | 95 | 88 | 103 | 77 | 88 | 81 |  |  |  |  |  |  |  | 
COc1ccc2c(c1)[nH]c1c(C)nccc12 [Harmine] |  |  |  |  |  |  |  |  | 97 | 73 | 89 | 93 | 94 | 101 | 92 | 87
